Laboratory results published in US9169195B2, “Amides, use of amides as solvents for organic compounds, compositions and emulsions containing amides, and method for treating a plant” (AKZO NOBEL CHEMICALS INTERNATIONAL B.V., priority 2009, dated 2015).
Like-named read-outs stand apart in the source and are kept apart here.

How the values were obtained:
[1] = Emulsion dilution: crystallisation of tebuconazole in emulsions, ocular inspection; type: physicochemical; design: key: +: no crystals visible; −: crystals visible; settings: 5° C.
Method: Formulations containing 250 g/l of tebuconazole was formulated together with 100 g/l of surfactant blend (CaDDBS and tristyrylphenol ethoxylate (15 EO), 50:50) and diluted to a final volume of one liter with each one of the solvents N,N-dimethyl decanamide, N-methyl-N-octyl propanamide, N-methyl-N-(2-propylheptyl) formamide or N-methyl-N-(n-decyl) formamide. Each formulation was emulsified into tap water at ambient temperature (˜22° C.) in the volume ratio (formulation:water) 1:100, 1:150, 1:200 and 1:500 dilution. The emulsions were poured into 100 ml conical glass centrifuge tubes and monitored over time at three different temperatures 5, 20 and 40° C. for observation of crystallisation of active ingredient (tebuconazole).
Crystallization was judged by ocular inspection with the naked eye, and in the table below, the following is used: […]

[2] = Solubility of active ingredients in the amide solvents (solvent added until dissolved, stable 24 h)
Method: Various agriculturally active ingredients were dissolved in both N-methyl-N-(2-propylheptyl)-formamide and N-methyl-N-(n-decyl)-formamide in order to evaluate the solubility of the active ingredients in the amides.
This was done by adding the active ingredient (AI) to a beaker and thereafter adding the solvent until the entire AI had been dissolved. The solutions were continually stirred at a temperature of 23° C. during the experiments. When everything had been dissolved, the beakers were left without stirring for 24 h to see if the solution was stable (i.e. no crystallization).

[3] = numbers taken from the e-Pesticide Manual v 4.0; cited from earlier work
[4] = 3 h, formulation:tap water 1:100, 250 g/l tebuconazole
[5] = 3 h, formulation:tap water 1:150, 250 g/l tebuconazole
[6] = 3 h, formulation:tap water 1:200, 250 g/l tebuconazole
[7] = 3 h, formulation:tap water 1:500, 250 g/l tebuconazole
[8] = 6 h, formulation:tap water 1:100, 250 g/l tebuconazole
[9] = 6 h, formulation:tap water 1:150, 250 g/l tebuconazole
[10] = 6 h, formulation:tap water 1:200, 250 g/l tebuconazole
[11] = 6 h, formulation:tap water 1:500, 250 g/l tebuconazole
[12] = 12 h, formulation:tap water 1:100, 250 g/l tebuconazole
[13] = 12 h, formulation:tap water 1:150, 250 g/l tebuconazole
[14] = 12 h, formulation:tap water 1:200, 250 g/l tebuconazole
[15] = 12 h, formulation:tap water 1:500, 250 g/l tebuconazole
[16] = 24 h, formulation:tap water 1:100, 250 g/l tebuconazole
[17] = 24 h, formulation:tap water 1:150, 250 g/l tebuconazole
[18] = 24 h, formulation:tap water 1:200, 250 g/l tebuconazole
[19] = 24 h, formulation:tap water 1:500, 250 g/l tebuconazole
[20] = 36 h, formulation:tap water 1:100, 250 g/l tebuconazole
[21] = 36 h, formulation:tap water 1:150, 250 g/l tebuconazole
[22] = 36 h, formulation:tap water 1:200, 250 g/l tebuconazole
[23] = 36 h, formulation:tap water 1:500, 250 g/l tebuconazole
[24] = 48 h, formulation:tap water 1:100, 250 g/l tebuconazole
[25] = 48 h, formulation:tap water 1:150, 250 g/l tebuconazole
[26] = 48 h, formulation:tap water 1:200, 250 g/l tebuconazole
[27] = 48 h, formulation:tap water 1:500, 250 g/l tebuconazole
[28] = 72 h, formulation:tap water 1:100, 250 g/l tebuconazole
[29] = 72 h, formulation:tap water 1:150, 250 g/l tebuconazole
[30] = 72 h, formulation:tap water 1:200, 250 g/l tebuconazole
[31] = 72 h, formulation:tap water 1:500, 250 g/l tebuconazole
[32] = 96 h, formulation:tap water 1:100, 250 g/l tebuconazole
[33] = 96 h, formulation:tap water 1:150, 250 g/l tebuconazole
[34] = 96 h, formulation:tap water 1:200, 250 g/l tebuconazole
[35] = 96 h, formulation:tap water 1:500, 250 g/l tebuconazole
[36] = solvent N-methyl-N-(2-propylheptyl) formamide, 23° C.
[37] = solvent N-methyl-N-(n-decyl) formamide, 23° C.

SMILES | Crystallisation of tebuconazole in emulsion [1, 4] | Crystallisation of tebuconazole in emulsion [1, 5] | Crystallisation of tebuconazole in emulsion [1, 6] | Crystallisation of tebuconazole in emulsion [1, 7] | Crystallisation of tebuconazole in emulsion [1, 8] | Crystallisation of tebuconazole in emulsion [1, 9] | Crystallisation of tebuconazole in emulsion [1, 10] | Crystallisation of tebuconazole in emulsion [1, 11] | Crystallisation of tebuconazole in emulsion [1, 12] | Crystallisation of tebuconazole in emulsion [1, 13] | Crystallisation of tebuconazole in emulsion [1, 14] | Crystallisation of tebuconazole in emulsion [1, 15] | Crystallisation of tebuconazole in emulsion [1, 16] | Crystallisation of tebuconazole in emulsion [1, 17] | Crystallisation of tebuconazole in emulsion [1, 18] | Crystallisation of tebuconazole in emulsion [1, 19] | Crystallisation of tebuconazole in emulsion [1, 20] | Crystallisation of tebuconazole in emulsion [1, 21] | Crystallisation of tebuconazole in emulsion [1, 22] | Crystallisation of tebuconazole in emulsion [1, 23] | also measured
CCCCCCCCN(C)C(=O)CC [N-methyl-N-octyl propanamide] | + | + | + | + | + | + | + | − | + | + | − | − | + | + | − | − | + | + | − | − | Crystallisation of tebuconazole in emulsion [1, 24]: +; Crystallisation of tebuconazole in emulsion [1, 25]: −; Crystallisation of tebuconazole in emulsion [1, 26]: −; Crystallisation of tebuconazole in emulsion [1, 27]: −; Crystallisation of tebuconazole in emulsion [1, 28]: +; Crystallisation of tebuconazole in emulsion [1, 29]: −; Crystallisation of tebuconazole in emulsion [1, 30]: −; Crystallisation of tebuconazole in emulsion [1, 31]: −; Crystallisation of tebuconazole in emulsion [1, 32]: +; Crystallisation of tebuconazole in emulsion [1, 33]: −; Crystallisation of tebuconazole in emulsion [1, 34]: −; Crystallisation of tebuconazole in emulsion [1, 35]: −
O=C(O)COc1ccc(Cl)cc1Cl [2,4-D acid] |  |  |  |  |  |  |  |  |  |  |  |  |  |  |  |  |  |  |  |  | Solubility in N-Methyl-N-(2-propylheptyl) formamide [2, 36]: 41 g Al/100 g solvent; Solubility in N-Methyl-N-(n-decyl) formamide [2, 37]: >50 g Al/100 g solvent; Solubility in Water [3]: 0.0311 g Al/100 g solvent
CCCCCCCCCC(=O)N(C)C [N,N-dimethyl decanamide] | + | + | + | + | + | + | + | − | + | + | − | − | + | − | − | − | + | − | − | − | Crystallisation of tebuconazole in emulsion [1, 24]: +; Crystallisation of tebuconazole in emulsion [1, 25]: −; Crystallisation of tebuconazole in emulsion [1, 26]: −; Crystallisation of tebuconazole in emulsion [1, 27]: −; Crystallisation of tebuconazole in emulsion [1, 28]: +; Crystallisation of tebuconazole in emulsion [1, 29]: −; Crystallisation of tebuconazole in emulsion [1, 30]: −; Crystallisation of tebuconazole in emulsion [1, 31]: −; Crystallisation of tebuconazole in emulsion [1, 32]: +; Crystallisation of tebuconazole in emulsion [1, 33]: −; Crystallisation of tebuconazole in emulsion [1, 34]: −; Crystallisation of tebuconazole in emulsion [1, 35]: −
CON=C(C(=O)OC)c1ccccc1CON=C(C)c1cccc(C(F)(F)F)c1 [Trifloxystrobin] |  |  |  |  |  |  |  |  |  |  |  |  |  |  |  |  |  |  |  |  | Solubility in N-Methyl-N-(2-propylheptyl) formamide [2]: 23 g Al/100 g solvent; Solubility in N-Methyl-N-(n-decyl) formamide [2]: 23 g Al/100 g solvent
Cc1ccc(/N=C/N(C)/C=N/c2ccc(C)cc2C)c(C)c1 [Amitraz] |  |  |  |  |  |  |  |  |  |  |  |  |  |  |  |  |  |  |  |  | Solubility in N-Methyl-N-(2-propylheptyl) formamide [2, 36]: >50 g Al/100 g solvent; Solubility in N-Methyl-N-(n-decyl) formamide [2, 37]: >50 g Al/100 g solvent; Solubility in Water [3]: <0.00001 g Al/100 g solvent
Cc1c(COC(=O)[C@@H]2[C@H](/C=C(\Cl)C(F)(F)F)C2(C)C)cccc1-c1ccccc1 (racemic) [Bifenthrin] |  |  |  |  |  |  |  |  |  |  |  |  |  |  |  |  |  |  |  |  | Solubility in N-Methyl-N-(2-propylheptyl) formamide [2, 36]: >50 g Al/100 g solvent; Solubility in N-Methyl-N-(n-decyl) formamide [2, 37]: >50 g Al/100 g solvent; Solubility in Water [3]: <0.0000001 g Al/100 g solvent
CCCCCCCCCCN(C)C=O [N-methyl-N-(n-decyl) formamide] | + | + | + | + | + | + | + | + | + | + | + | + | + | + | + | + | + | + | + | + | Crystallisation of tebuconazole in emulsion [1, 24]: +; Crystallisation of tebuconazole in emulsion [1, 25]: +; Crystallisation of tebuconazole in emulsion [1, 26]: +; Crystallisation of tebuconazole in emulsion [1, 27]: +; Crystallisation of tebuconazole in emulsion [1, 28]: +; Crystallisation of tebuconazole in emulsion [1, 29]: +; Crystallisation of tebuconazole in emulsion [1, 30]: +; Crystallisation of tebuconazole in emulsion [1, 31]: +; Crystallisation of tebuconazole in emulsion [1, 32]: +; Crystallisation of tebuconazole in emulsion [1, 33]: +; Crystallisation of tebuconazole in emulsion [1, 34]: +; Crystallisation of tebuconazole in emulsion [1, 35]: +
CCCCCC(CCC)CN(C)C=O (stereo not drawn) [N-methyl-N-(2-propylheptyl) formamide, N-methyl-N-(2-propylheptyl)-formamide] | + | + | + | + | + | + | + | + | + | + | + | + | + | + | + | + | + | + | + | + | Crystallisation of tebuconazole in emulsion [1, 24]: +; Crystallisation of tebuconazole in emulsion [1, 25]: +; Crystallisation of tebuconazole in emulsion [1, 26]: +; Crystallisation of tebuconazole in emulsion [1, 27]: +; Crystallisation of tebuconazole in emulsion [1, 28]: +; Crystallisation of tebuconazole in emulsion [1, 29]: +; Crystallisation of tebuconazole in emulsion [1, 30]: +; Crystallisation of tebuconazole in emulsion [1, 31]: +; Crystallisation of tebuconazole in emulsion [1, 32]: +; Crystallisation of tebuconazole in emulsion [1, 33]: +; Crystallisation of tebuconazole in emulsion [1, 34]: +; Crystallisation of tebuconazole in emulsion [1, 35]: +
CC(C)(C)C(O)(CCc1ccc(Cl)cc1)Cn1cncn1 (stereo not drawn) [Tebuconazole] |  |  |  |  |  |  |  |  |  |  |  |  |  |  |  |  |  |  |  |  | Solubility in N-Methyl-N-(n-decyl) formamide [2]: 48 g Al/100 g solvent; Solubility in N-Methyl-N-(2-propylheptyl) formamide [2, 36]: 48 g Al/100 g solvent
